Molecules are shown by their SMILES. Like-named read-outs stand apart in the source and are kept apart here.

Drawing on patent US10508120B2, “TYK2 inhibitors and uses thereof” (Nimbus Lakshmi, Inc., priority 2017, dated 2019), this text covers Kd, inhibition and IC50 for twelve compounds.

Assay [1] deals with human TYK2 (JH2domain-pseudokinase) (Homo sapiens (Human), UniProt P29597). The assay is described as follows: TYK2 JH2 Domain Binding Assay (KINOMEscan). A digest of the protocol: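 Kds, run in duplicate, came from Hill fits (slope fixed at −1) of an 11-point 3-fold dilution series starting at 30,000 nM. Bead-retained TYK2 JH2 (aa G556–D888)–NFkB DBD fusion, DNA-tagged and expressed in HEK293 cells, was read by qPCR after 1 h room-temperature binding in 0.9% DMSO.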

For assay [2], the target named is Tyk2 kinase domain (DH1) (Homo sapiens (Human), UniProt P29597). Kind of assay: Tyk2 Radioactive Kinase Assay. It is filed as biochemical. The conditions noted are these: read-out: Tyk2 JH1% Inhibition @ 10 μM. Summed up: (§1)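 Each kinase domain is incubated with test compound at 10 μM. Activity is then measured radiometrically and expressed as percent inhibition relative to uninhibited enzyme.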

Assay [3] has as its target JAK2 kinase domain (JH1) (Homo sapiens (Human), UniProt O60674). Kind of assay: JAK2 Radioactive Kinase Assay. It is filed as biochemical. The following applies: read-out: JAK2 JH1% Inhibition @ 10 μM. Summed up: as §1
The target in assay [4] is Tyk2/JAK2 (heterodimeric complex) (Homo sapiens (Human), UniProt P29597). Kind of assay: IL-12 Induced pSTAT4 in Human PBMC. The following applies: 1.7 ng/mL IL-12. It is filed as cell-based. An excerpt: The IL-12 Induced pSTAT4 assay evaluates the inhibition of IL-12 induced STAT4 phophorylation mediated by Tyk2/JAK2 (heterodimeric complex).
Assay [5] addresses JAK2/JAK2 homdimeric complex (Homo sapiens (Human), UniProt O60674). The assay is described as follows: GM-CSF Induced pSTAT5 in Human PBMC. The assay is classed as cell-based. The following applies: GM-CSF 5 ng/mL for 20 minutes, pSTAT5 by MSD, read-out: PBMC_GMCSF_pSTAT5 IC50.

JAK2/JAK2 homdimeric complex, sequence (O60674 whole entry): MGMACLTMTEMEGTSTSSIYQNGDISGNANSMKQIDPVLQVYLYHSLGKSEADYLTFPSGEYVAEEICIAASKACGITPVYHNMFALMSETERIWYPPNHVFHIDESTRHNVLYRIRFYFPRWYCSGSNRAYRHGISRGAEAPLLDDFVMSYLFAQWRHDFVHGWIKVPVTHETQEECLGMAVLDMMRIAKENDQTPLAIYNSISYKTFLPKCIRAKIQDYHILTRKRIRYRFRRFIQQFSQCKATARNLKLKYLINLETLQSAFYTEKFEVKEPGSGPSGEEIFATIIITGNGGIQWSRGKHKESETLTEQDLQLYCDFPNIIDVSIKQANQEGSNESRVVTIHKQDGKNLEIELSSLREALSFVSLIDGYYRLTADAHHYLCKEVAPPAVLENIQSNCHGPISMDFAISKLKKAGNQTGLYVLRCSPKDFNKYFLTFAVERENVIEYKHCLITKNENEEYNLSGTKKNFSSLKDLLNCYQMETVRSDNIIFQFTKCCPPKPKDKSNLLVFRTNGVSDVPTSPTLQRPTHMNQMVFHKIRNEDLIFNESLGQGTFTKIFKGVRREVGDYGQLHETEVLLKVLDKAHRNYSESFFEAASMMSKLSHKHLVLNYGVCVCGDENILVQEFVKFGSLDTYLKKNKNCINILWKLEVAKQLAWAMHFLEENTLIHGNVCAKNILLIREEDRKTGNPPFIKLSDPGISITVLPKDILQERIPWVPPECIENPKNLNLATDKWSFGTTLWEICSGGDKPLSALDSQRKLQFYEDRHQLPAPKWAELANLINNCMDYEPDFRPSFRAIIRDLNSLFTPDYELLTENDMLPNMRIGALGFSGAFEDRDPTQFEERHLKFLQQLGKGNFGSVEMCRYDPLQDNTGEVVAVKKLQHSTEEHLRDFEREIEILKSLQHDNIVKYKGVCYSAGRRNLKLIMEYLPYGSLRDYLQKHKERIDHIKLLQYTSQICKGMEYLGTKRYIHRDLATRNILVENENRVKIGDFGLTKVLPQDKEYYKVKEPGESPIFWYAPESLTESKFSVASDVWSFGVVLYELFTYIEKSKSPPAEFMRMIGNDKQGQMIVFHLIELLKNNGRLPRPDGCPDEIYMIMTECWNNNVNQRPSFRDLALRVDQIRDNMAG
JAK2/JAK2 homdimeric complex, sequence (P32927 17-897 partner): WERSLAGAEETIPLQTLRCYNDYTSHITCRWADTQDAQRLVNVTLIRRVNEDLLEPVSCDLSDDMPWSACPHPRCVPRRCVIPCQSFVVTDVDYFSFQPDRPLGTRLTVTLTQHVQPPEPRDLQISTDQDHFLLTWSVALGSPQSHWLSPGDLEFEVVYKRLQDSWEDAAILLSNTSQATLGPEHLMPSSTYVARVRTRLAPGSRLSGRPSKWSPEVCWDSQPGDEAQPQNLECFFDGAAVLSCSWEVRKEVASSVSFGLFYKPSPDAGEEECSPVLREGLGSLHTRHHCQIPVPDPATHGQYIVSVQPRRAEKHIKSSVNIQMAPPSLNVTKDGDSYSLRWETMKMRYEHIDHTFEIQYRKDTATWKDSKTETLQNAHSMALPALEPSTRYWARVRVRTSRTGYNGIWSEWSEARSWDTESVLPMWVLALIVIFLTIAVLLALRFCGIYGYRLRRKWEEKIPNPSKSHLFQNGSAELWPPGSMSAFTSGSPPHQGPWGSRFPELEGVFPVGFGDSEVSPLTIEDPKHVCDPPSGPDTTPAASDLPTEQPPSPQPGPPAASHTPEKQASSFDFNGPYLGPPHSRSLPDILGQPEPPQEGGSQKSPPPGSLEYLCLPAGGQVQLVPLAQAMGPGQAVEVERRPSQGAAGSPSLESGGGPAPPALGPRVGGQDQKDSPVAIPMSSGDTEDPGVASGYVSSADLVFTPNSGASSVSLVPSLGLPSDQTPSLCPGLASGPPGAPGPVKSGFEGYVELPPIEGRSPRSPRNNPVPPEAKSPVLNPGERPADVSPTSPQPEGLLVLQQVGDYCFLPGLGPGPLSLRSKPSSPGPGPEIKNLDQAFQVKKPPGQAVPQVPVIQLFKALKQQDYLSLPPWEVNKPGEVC
human TYK2 (JH2domain-pseudokinase), sequence (P29597 556-888): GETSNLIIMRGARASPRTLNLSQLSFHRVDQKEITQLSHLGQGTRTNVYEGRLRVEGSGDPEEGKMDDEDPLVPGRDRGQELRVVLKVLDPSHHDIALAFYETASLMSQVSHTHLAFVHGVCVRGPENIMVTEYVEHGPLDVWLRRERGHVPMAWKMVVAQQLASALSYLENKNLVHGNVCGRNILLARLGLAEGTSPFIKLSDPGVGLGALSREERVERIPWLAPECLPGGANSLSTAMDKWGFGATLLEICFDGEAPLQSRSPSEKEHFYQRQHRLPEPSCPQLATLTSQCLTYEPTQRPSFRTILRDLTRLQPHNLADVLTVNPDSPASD
JAK2 kinase domain (JH1), sequence (O60674 849-1124): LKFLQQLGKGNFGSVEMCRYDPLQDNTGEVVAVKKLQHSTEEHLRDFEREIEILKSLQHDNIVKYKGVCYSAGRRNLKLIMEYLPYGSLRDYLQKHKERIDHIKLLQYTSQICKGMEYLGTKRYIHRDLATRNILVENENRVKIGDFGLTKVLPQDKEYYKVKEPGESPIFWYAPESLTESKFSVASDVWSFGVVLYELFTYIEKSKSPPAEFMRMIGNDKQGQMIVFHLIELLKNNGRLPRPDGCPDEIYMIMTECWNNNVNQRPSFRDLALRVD
Tyk2 kinase domain (DH1), sequence (P29597 897-1176): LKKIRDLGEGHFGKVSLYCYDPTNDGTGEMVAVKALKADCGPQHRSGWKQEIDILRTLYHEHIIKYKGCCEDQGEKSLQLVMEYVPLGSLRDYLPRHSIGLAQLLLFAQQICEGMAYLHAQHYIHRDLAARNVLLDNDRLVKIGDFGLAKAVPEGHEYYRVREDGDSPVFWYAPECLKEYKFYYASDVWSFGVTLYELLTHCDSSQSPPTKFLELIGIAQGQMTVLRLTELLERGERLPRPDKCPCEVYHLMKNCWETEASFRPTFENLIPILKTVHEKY
Tyk2/JAK2 (heterodimeric complex), sequence (P29597 whole entry, other chains not shown): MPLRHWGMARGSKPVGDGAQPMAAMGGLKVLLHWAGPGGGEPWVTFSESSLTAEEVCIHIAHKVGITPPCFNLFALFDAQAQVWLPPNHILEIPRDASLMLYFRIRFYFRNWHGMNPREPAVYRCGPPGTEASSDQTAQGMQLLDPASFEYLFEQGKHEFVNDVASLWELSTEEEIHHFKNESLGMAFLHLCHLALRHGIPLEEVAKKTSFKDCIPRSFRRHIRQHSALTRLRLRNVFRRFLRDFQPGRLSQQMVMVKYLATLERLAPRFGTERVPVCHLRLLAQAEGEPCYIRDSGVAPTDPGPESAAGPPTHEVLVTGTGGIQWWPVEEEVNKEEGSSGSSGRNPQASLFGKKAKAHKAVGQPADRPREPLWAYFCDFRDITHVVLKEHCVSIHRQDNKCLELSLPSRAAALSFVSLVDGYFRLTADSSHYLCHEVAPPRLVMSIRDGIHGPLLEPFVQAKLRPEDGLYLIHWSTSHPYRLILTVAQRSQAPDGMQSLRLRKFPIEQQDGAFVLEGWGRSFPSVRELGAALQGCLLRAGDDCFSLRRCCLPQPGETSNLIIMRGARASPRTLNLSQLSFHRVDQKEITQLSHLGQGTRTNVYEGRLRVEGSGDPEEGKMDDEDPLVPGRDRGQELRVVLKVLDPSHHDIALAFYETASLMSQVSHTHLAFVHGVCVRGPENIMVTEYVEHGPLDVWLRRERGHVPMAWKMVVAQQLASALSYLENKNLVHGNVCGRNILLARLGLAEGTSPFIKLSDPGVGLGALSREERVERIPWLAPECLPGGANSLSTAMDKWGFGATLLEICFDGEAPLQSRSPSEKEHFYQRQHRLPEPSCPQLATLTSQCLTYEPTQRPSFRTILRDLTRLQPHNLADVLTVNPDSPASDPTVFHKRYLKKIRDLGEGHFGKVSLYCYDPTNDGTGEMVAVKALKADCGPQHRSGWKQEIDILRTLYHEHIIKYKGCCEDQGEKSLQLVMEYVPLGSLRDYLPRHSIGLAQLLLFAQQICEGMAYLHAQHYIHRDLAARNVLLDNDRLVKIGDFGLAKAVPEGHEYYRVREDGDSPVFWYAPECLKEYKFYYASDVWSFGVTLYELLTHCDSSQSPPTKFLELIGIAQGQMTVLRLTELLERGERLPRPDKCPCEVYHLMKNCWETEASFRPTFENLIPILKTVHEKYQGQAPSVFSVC

For orientation: Kd means the constant that tells how readily two partners part at equilibrium. Read a low Kd as tighter binding. In general, inhibition refers to how much of the control response was suppressed. Broadly, the IC50 is the midpoint of a concentration-inhibition curve. Regarding `CNC(=O)c1occc1Nc1cc(NC)n2ncc(C(=O)N[C@@H]3C[C@@H]3F)c2n1` [I-888, N-((1R,2S)-2-fluorocyclopropyl)-7-(methylamino)-5-((2-(methylcarbamoyl)furan-3-yl)amino)pyrazolo[1,5-a]pyrimidine-3-carboxamide], in assay [1], the Kd is less than 0.2 nM. Moreover, the inhibition at 10 µM in assay [2] (10 μM compound, 10 μM ATP) is less than 50%; in assay [3] (10 μM compound, 10 μM ATP), less than 50%. Besides, the IC50 in assay [4] is less than 100 nM; in assay [5] it was greater than 50000 nM.
`CNc1cc(Nc2cccn(-c3cnn(CC4CCOCC4)c3)c2=O)nc2c(C(=O)NC3CC3)cnn12` [I-406]: the Kd in assay [1] is less than 0.2 nM. Further, the inhibition at 10 µM in assay [2] (compound at 10 μM, ATP 10 μM) was less than 50%; in assay [3] (compound at 10 μM, ATP 10 μM), less than 50%. The IC50 is 100 to 500 nM in assay [4] and greater than 12500 nM in assay [5].
Take `CNc1cc(Nc2cccn(-c3ccc(F)cn3)c2=O)nc2c(C(=O)NC3CCC3)cnn12` [I-238]: the Kd in assay [1] was less than 0.2 nM. Besides, the inhibition at 10 µM in assay [2] (compound at 10 μM, ATP 10 μM) is less than 50%; in assay [3] (compound at 10 μM, ATP 10 μM), less than 50%. Moreover, the IC50 in assay [4] was less than 100 nM; in assay [5] it was greater than 50000 nM.
In assay [1], `CNc1cc(Nc2cc(Cl)cn(-c3ccc(C4CC4)nn3)c2=O)nc2c(C(=O)NC3CC3)cnn12` [I-333] returned a Kd of less than 0.2 nM. Besides, the inhibition at 10 µM was less than 50% in assay [2] (compound at 10 μM, ATP 10 μM) and less than 50% in assay [3] (compound at 10 μM, ATP 10 μM). The IC50 in assay [4] is less than 100 nM; in assay [5] it was greater than 12500 nM.
In assay [1], `CNc1cc(Nc2cccn(-c3ccccn3)c2=O)nc2c(C(=O)NC3CC3)cnn12` [I-680] came in with a Kd of less than 0.2 nM. The inhibition at 10 µM was less than 50% in assay [2] (compound at 10 μM, ATP 10 μM) and less than 50% in assay [3] (compound at 10 μM, ATP 10 μM). Also, the figures for the IC50 in assay [4] and in assay [5] were less than 100 nM and greater than 12500 nM, respectively.
In assay [1], `CNc1cc(Nc2cc(Cl)cn(-c3ccn(C)n3)c2=O)nc2c(C(=O)NC3CC3)cnn12` [I-310] came in with a Kd of less than 0.2 nM. In addition, the inhibition at 10 µM is less than 50% in assay [2] (compound at 10 μM, ATP 10 μM) and less than 50% in assay [3] (compound at 10 μM, ATP 10 μM). Moreover, the IC50 in assay [4] is less than 100 nM; in assay [5], greater than 2500 nM.
In turn, `[2H]C([2H])([2H])Oc1ncccc1Nc1cc(NC)n2ncc(C(=O)N[C@@H]3CCC[C@@H](O)C3)c2n1` [I-499] displayed a Kd in assay [1] of less than 0.2 nM. Further, the inhibition at 10 µM in assay [2] (compound at 10 μM, ATP 10 μM) was less than 50%; in assay [3] (compound at 10 μM, ATP 10 μM), less than 50%. For the same compound, the figures for the IC50 in assay [4] and in assay [5] were less than 100 nM and greater than 50000 nM, respectively.
Compound `CNc1cc(Nc2cccn(-c3ccc(C4CC4)nn3)c2=O)nc2c(C(=O)NC3CCC3)cnn12` [I-240] came in with a Kd in assay [1] of less than 0.2 nM. Moreover, the inhibition at 10 µM in assay [2] (compound at 10 μM, ATP 10 μM) was less than 50%; in assay [3] (compound at 10 μM, ATP 10 μM), less than 50%. The IC50 in assay [4] was less than 100 nM; in assay [5] it was greater than 2500 nM.
As for `CNc1cc(Nc2cccnc2OC(F)F)nc2c(C(=O)N[C@H]3C[C@H]3F)cnn12` [I-153], in assay [1], the Kd is less than 0.2 nM. The inhibition at 10 µM is less than 50% in assay [2] (compound at 10 μM, ATP 10 μM) and 50 to 70% in assay [3] (compound at 10 μM, ATP 10 μM). The results for the IC50 in assay [4] and in assay [5] were less than 100 nM and greater than 12500 nM, respectively.
In the case of `CNc1cc(Nc2cc(Cl)cn(C3CCCOC3)c2=O)nc2c(C(=O)N[C@H]3C[C@H]3F)cnn12` (stereo partly drawn) [I-693], the Kd in assay [1] is less than 0.2 nM. Besides, the inhibition at 10 µM in assay [2] (compound at 10 μM, ATP 10 μM) is less than 50%; in assay [3] (compound at 10 μM, ATP 10 μM) it was less than 50%. The IC50 in assay [4] is less than 100 nM; in assay [5] it was greater than 50000 nM.
In turn, `[2H]C([2H])([2H])Oc1ncccc1Nc1cc(NC)n2ncc(C(=O)N[C@H]3C[C@H](O)C3)c2n1` [I-321, N-((1r, 3r)-3-hydroxycyclobutyl)-5-((2-(methoxy-d3)pyridin-3-yl)amino)-7-(methylamino)pyrazolo[1,5-a]pyrimidine-3-carboxamide] showed a Kd in assay [1] of less than 0.2 nM. Also, the inhibition at 10 µM in assay [2] (compound at 10 μM, ATP 10 μM) was less than 50%; in assay [3] (compound at 10 μM, ATP 10 μM), less than 50%. In addition, the half-maximal inhibitory concentration (IC50) was less than 100 nM in assay [4] and greater than 2500 nM in assay [5].
With `CNc1cc(Nc2cccc(-c3cn(C)nc3F)n2)nc2c(C(=O)N[C@@H]3C[C@@H]3F)cnn12` [I-860], the Kd in assay [1] was less than 0.2 nM. Besides, the inhibition at 10 µM in assay [2] (10 μM compound, 10 μM ATP) was less than 50%; in assay [3] (10 μM compound, 10 μM ATP) it was less than 50%. For the same compound, the IC50 in assay [4] was less than 100 nM; in assay [5] it was greater than 50000 nM.
